According to publication PMC6278568, “Discovery of 3-Amino-2-Hydroxypropoxyisoflavone Derivatives as Potential Anti-HCV Agents” (Molecules, 2018):
Entries after “also recorded” stand apart in the source; their conditions may differ. Like-named read-outs stand apart in the source and are kept apart here.

Experiments:
[1] = system: HCV replication; experiment: Anti-HCV activity in Ava-5 HCV subgenomic replicon cells (firefly luciferase assay); type: cell-based, Hepatitis C virus; settings: Ava-5 cells; for EC50: treated for three days, firefly luciferase assay, read-out: EC50 (concentration resulting in a 50% inhibition in virus production / HCV replication); for anti-HCV activity compared with ribavirin (in words): three days
Procedure: Ava-5 cells were treated with compounds 6a–i or the positive ribavirin for three days, and then analyzed through firefly luciferase assay. The concentration that inhibited 50% HCV replication (EC50), the concentration that inhibited 50% cell growth (CC50), and the selectivity index (SI: CC50/EC50) of compounds were determined with ribavirin as a positive control.
(§1) Compounds were dissolved in DMSO at 10 mM and then diluted in culture medium.
(§2) Ava5 cells, an engineered HCV subgenomic replicon cell line, were cultured in Dulbecco′s modified Eagle′s medium (DMEM) with 10% heat-inactivated fetal bovine serum, 1% antibiotic–antimycotic, and 1% non-essential amino acids. Ava5 cells were maintained in DMEM with 1 mg mL^−1 G418 to maintain the stable expression of replicon.

[2] = system: ava-5 cells; experiment: Cytotoxicity in Ava-5 cells (XTT method); type: cell-based; settings: Ava-5 cells, 72 h, XTT method; read-out: CC50 (concentration causing a 50% growth inhibition of uninfected ava-5 cells)
Procedure: as §1, §2
(§3) For cytotoxicity tests, run in parallel with antiviral assays, plates at an initial density of (5 × 10^3 cells/well) were treated with or without serial dilutions of test compounds. Cell viability was determined after 72 h at 37 °C in a humidified CO2 (5%) atmosphere by the (2,3-bis[2-methyloxy-4-nitro-5-sulfophenyl]-2H-tetrazolium-5-carboxanilide) (XTT) method.

[3] = system: HCV genotype 1b; settings: cited from earlier work
[4] = system: HCV genotype 2a; settings: cited from earlier work
[5] = system: HCV; settings: cited from earlier work
[6] = Cytotoxicity in Ava-5 cells (XTT method); type: cell-based; settings: human, Ava5 cells (HCV subgenomic replicon cell line); Ava-5 cells, 72 h, XTT method; read-out: CC50 (concentration causing a 50% growth inhibition of uninfected ava-5 cells)
Procedure: as §1, §2, §3

[7] = system: HO-1 protein expression; experiment: HO-1 protein expression in Ava-5 cells by western blotting; type: cell-based; settings: 10 μM, 3 days, compared with DMSO-treated cells
Procedure: To determine whether compounds 6b, 6e, 6h and 6i have impact on HO-1 protein expression in Ava-5 cells, we treated these compounds at 10 μM in Ava5 cells.
Ava5 cells were seeded in 24-well plates at a density of 5 × 10^4 cells per well overnight and treated with indicated reagent at proper concentrations for 3 days. Cells were washed with cold phosphate buffer saline (PBS) and lysed by radioimmunoprecipitation assay (RIPA) lysis buffer (50 mM Tris-HCl, pH 7.5, 150 mM NaCl, 1% Nonidet P-40, 2 mM EDTA, 1 mM EGTA, 1 mM NaVO3, 10 mM NaF, 1 mM DTT, 1 mM PMSF, 25 μg/mL aprotinin, and 25 μg/mL leupeptin) and stored at −20 °C. The protein concentration was determined by the Bradford method. Ten μg protein were separated by 10% SDS-PAGE and transferred onto a polyvinylidene difluorid (PVDF) membrane. The membrane was blocked with 5% non-fat dried milk and incubated with specific antibodies against NS5B (1:5000; Abcam Cambridge, MA, USA), glyceraldehyde-3-phosphate dehydrogenase (GAPDH) and anti-HO-1 (1:3000, Abcam Cambridge, MA, USA). Antibodies were diluted in 5% milk containing Tris-buffered saline (TBS) and 0.5% Tween. The blotting signal was developed using an ECL detection kit (PerkinElmer, Norwalk, CT, USA) and was counted by the software Quantity One (Bio-Rad, Foster, CA, USA).
Compound 6b, 6e, 6h and 6i induced HO-1 protein expression. Ava-5 cells were treated with compounds at 10 μM for 3 days. The cell lysate was subjected to western blotting with anti-HO-1 and anti-GAPDH antibodies.

[8] = system: Nrf2 / ARE transactivation; experiment: ARE transactivation, p3xARE-Luc reporter in Ava-5 cells (luciferase assay); type: cell-based; settings: p3xARE-Luc-transfected Ava-5 cells, 1 and 10 μM, 3 days
Text: Heme oxygenase 1 expression is regulated by the transcription factors Nrf2, Keap1, and Bach1 through the binding of ARE in its promoter region; therefore, we determined whether isoflavones-mediated HO-1 induction was dependent on ARE transactivation by treating p3xARE-Luc-transfected ava-5 cells with increasing concentrations of […] for 3 days.
Ava5 cells were transfected with the HO-1 promoter-driven luciferase plasmid, pHO-1-Luc, using the T-pro^TM transfection reagent (Ji-Feng Biotechnology Co., Ltd., Taipei, Taiwan) according to the manufacturer′s instructions. The transfected cells were treated with compounds at various concentrations for 3 days. Each transfection complex contains 0.1 μg pSEAP, a secreted alkaline phosphatase (SEAP) expression vector, for normalization luciferase activity serving as a transfection control. The luciferase activity assay was performed using the Bright-Glo Luciferase assay system (Promega) (Madison, WI, USA) according to the manufacturer′s instructions.
Figure 6 Isoflavones inhibited HCV replication by upregulating Nrf2 expression. Compound 6b, 6e, 6h and 6i stimulated ARE transactivation in Ava-5 cells. The antioxidant response reporter plasmid, p3xARE-Luc, was transfected into Ava-5 cells and then treated with isoflavones (1 and 10 μM) for 3 days. The relative induction of antioxidant activity was determined by luciferase assay. The activity of untreated Ava-5 cells was considered to be 1.

| Molecule | melting point [°C] | SI (selectivity index, CC50/EC50) [1] | EC50 ([1]; Hepatitis C virus, Ava5, 72 h) [µM] | CC50 at 72 h [6] [µM] | other results |
| --- | --- | --- | --- | --- | --- |
| 3-{{3-{[3-(3,4-Dimethoxyphenyl)-4-oxo-4H-chromen-7-yl]oxy}-2-hydroxypropyl}amino}-2-(1H-indol-3-yl)propanoic acid [Compound 6d] | – | – | – | – | EC50 [1]: > 20 µM; CC50 [2]: 98.8 ± 3.67 µM |
| c1ccc(Cn2c(-c3ccccc3)cc3c2CCCC3)cc1 [Compound 1, 1-benzyl-2-phenyl-4,5,6,7-tetrahydro-1H-indole] | – | – | – | – | EC50 [3]: 7.9 µM; EC50 [4]: 2.6 µM |
| CCOC(=O)C1C[C@@H]2/C(=N/Nc3ccccc3)CCCC[C@@H]2N1S(=O)(=O)c1ccc(C)cc1 (stereo partly drawn) [Compound 2, (3aS,8aS,E)-ethyl-4-(2-phenylhydrazono)-1-tosyldecahydro-cyclohepta[b]pyrrole-2-carboxylate] | – | – | – | – | EC50 [3]: 1.8 µM; EC50 [4]: 4.5 µM |
| O=c1c(O)c(-c2ccc(O)c(O)c2)oc2cc(OCc3cccc(Cl)c3)cc(O)c12 [Compound 3, 7-[(3-chlorobenzyl)oxy]-2-(3,4-dihydroxyphenyl)-3,5-dihydroxy-4H-chromen-4-one] | – | – | – | – | EC50 ([5]; anti-HCV evaluation of quercetin analogues): 3.8 µM |
| COc1ccc(Nc2cc3oc(-c4ccco4)nc3c3ccccc23)cc1 [Compound 4, 2-(furan-2-yl)-N-(4-methoxyphenyl)naphtho[1,2-d]oxazol-5-amine] | – | – | – | – | EC50 ([5]; anti-HCV evaluation of naphtho[1,2-d]oxazole derivatives): 0.63 µM |
| COc1ccc(-c2coc3cc(OCC(O)CNCCc4ccc(O)cc4)ccc3c2=O)cc1OC (stereo not shown) [Compound 6a, 3-(3,4-Dimethoxyphenyl)-7-{2-hydroxy-3-[(4-hydroxyphenethyl)amino]propoxy}-4H-chromen-4-one] | 117 to 118 | <3.58 | > 20 | 71.7 ± 4.44 | – |
| COc1ccc(-c2coc3cc(OCC(O)CNCCc4c[nH]c5ccccc45)ccc3c2=O)cc1OC (stereo not shown) [Compound 6c, 7-{3-{[2-(1H-Indol-3-yl)ethyl]amino}-2-hydroxypropoxy}-3-(3,4-dimethoxyphenyl)-4H-chromen-4-one] | 178 to 179 | 2.26 | 16.3 ± 0.95 | 36.9 ± 0.46 | – |
| CCC(C)(C)NCC(O)COc1ccc2c(=O)c(-c3ccc(OC)c(OC)c3)coc2c1 (stereo not shown) [Compound 6e, 3-(3,4-Dimethoxyphenyl)-7-(2-hydroxy-3-(tert-pentylamino)propoxy)-4H-chromen-4-one] | – | 10.80 | 8.14 ± 1.74 | 87.9 ± 2.13 | HO-1 protein level [7]: could induce HO-1 protein level; anti-HCV activity compared with ribavirin (in words) [1]: more active than ribavirin; also recorded: higher anti-HCV effects than ribavirin; ARE-mediated luciferase activity [8]: increased ARE-mediated luciferase activity |
| COc1ccc(-c2coc3cc(OCC(O)CNC(C)(C)c4ccccc4)ccc3c2=O)cc1OC (stereo not shown) [Compound 6f, 3-(3,4-Dimethoxyphenyl)-7-{2-hydroxy-3-[(2-phenylpropan-2-yl)amino]propoxy}-4H-chromen-4-one] | 131 to 132 | 3.30 | 14.3 ± 0.84 | 47.2 ± 2.74 | – |
| COc1ccc(-c2coc3cc(OCC(O)CNC(C)(C)N4CCOCC4)ccc3c2=O)cc1OC (stereo not shown) [Compound 6g, 3-(3,4-Dimethoxyphenyl)-7-{2-hydroxy-3-[(2-morpholinopropan-2-yl)amino]propoxy}-4H-chromen-4-one] | – | <7.17 | > 20 | 144 ± 3.82 | – |
| COc1ccc(-c2coc3cc(OCC(O)CNC(C)(C)Cc4ccc(F)cc4)ccc3c2=O)cc1OC (stereo not shown) [Compound 6h, 3-(3,4-Dimethoxyphenyl)-7-{3-{[1-(4-fluorophenyl)-2-methylpropan-2-yl]amino}-2-hydroxypropoxy}-4H-chromen-4-one] | 151 to 152 | 11.87 | 9.35 ± 0.97 | 111 ± 4.39 | HO-1 protein level [7]: could induce HO-1 protein level; anti-HCV activity compared with ribavirin (in words) [1]: more active than ribavirin; also recorded: higher anti-HCV effects than ribavirin; ARE-mediated luciferase activity [8]: increased ARE-mediated luciferase activity |
| COc1ccc(-c2coc3cc(OCC(O)CNCC4(N5CCOCC5)CCCCC4)ccc3c2=O)cc1OC (stereo not shown) [Compound 6i, 3-(3,4-Dimethoxyphenyl)-7-{2-hydroxy-3-{[(1-morpholinocyclohexyl)methyl]amino}propoxy}-4H-chromen-4-one] | 67 to 68 | 14.55 | 10.7 ± 0.87 | 156 ± 1.58 | HO-1 protein level [7]: could induce HO-1 protein level; anti-HCV activity compared with ribavirin (in words) [1]: more active than ribavirin; also recorded: higher anti-HCV effects than ribavirin; ARE-mediated luciferase activity [8]: increased ARE-mediated luciferase activity |
| NC(=O)c1ncn([C@@H]2O[C@H](CO)[C@@H](O)[C@H]2O)n1 [ribavirin, reference compound] | – | 8.08 | 13.2 ± 1.63 | 106 ± 3.69 | – |
